{"source": "patent US20220202739A1", "about": "“ENDOCANNABINOID MIMETIC AND ANTI-INFLAMMATORY COMPOUND CONTAINING COMPOSITIONS, METHODS OF PREPARATION AND USES THEREOF” (priority 2019, published 2022)", "format_in_all_cases": "cell-based, human", "conditions_in_all_cases": "pooled keratinocytes, 20 ppm, 24 hr", "key": {"ITGB1": {"test_system": "ITGB1", "test": "Gene expression custom microarray, pooled keratinocyte line (Example 3): ITGB1", "experimental": "(§1) Cell cultures: Received and began culture of pooled keratinocyte line from Promocell (C-12006; Lot #448Z026). Cells were seeded into a 75 cm2 flask and 2 6 well dishes for expansion and exposure per manufacturer's protocol using Keratinocyte Growth Medium (C2011B), Keratinocyte Supplement Mix (C39016) and CaCl (C34005). 2 ml of prepared solution were added to each of the 6 wells and 7 ml was added to the 75 cm2 flask.\n(§2) Experimental phase: When the appropriate quantity of cells were grown, they were detached as described above, but at the final step were seeded into each well of one or more 6 well dishes. Each well received 2 ml of the cells suspended in suspension so they were seeded equally. The dishes were returned to the incubator until 85-95% confluency is reached.\n(§3) It was at this stage that all wells were rinsed in PBS after aspirating the growth media. The compound(s) to be tested were previously mixed into a suitable solvent (e.g., DMSO or ethanol) that can be diluted to the desired concentration of test compound (10 μl) in the culture wells without exceeding maximum solvent concentrations and adversely effecting cell viability, and mixed with Basal Keratinocyte Media. NOTE: Standard maximum levels of solvent are 0.1% for DMSO and 0.5% for ETOH. The concentration for each tested compound/natural extract is generally listed in the left-hand column of Table 4. For certain compositions (e.g., compositions 15 and 16), other concentrations were used and are noted in the body of Table 4.\n(§4) Every 2 wells on the 6 well plate served as a biological replicate for the purposes of RNA isolation and genetic expression evaluations making each 6 well dish an n=3 for the test compound contained in the media. […]\n(§5) At the end of the 24 hr time period, the plates were removed from the incubator, the test media aspirated, and the cells rinsed with PBS. […] Allow 1 minute for saturation of the membrane and then centrifuge for 2 minutes to complete the RNA elution. • Quantify the quantity of RNA and store at −20 C° until use (no more than 1 month) […]"}, "IL1A": {"test_system": "IL1A", "test": "Gene expression custom microarray, pooled keratinocyte line (Example 3): IL1A", "experimental": "as §1, §2, §3, §4, §5"}, "TLR2": {"test_system": "TLR2", "test": "Gene expression custom microarray, pooled keratinocyte line (Example 3): TLR2", "experimental": "as §1, §2, §3, §4, §5"}, "COL1A1": {"test_system": "COL1A1", "test": "Gene expression custom microarray, pooled keratinocyte line (Example 3): COL1A1", "experimental": "as §1, §2, §3, §4, §5"}, "KLF4": {"test_system": "KLF4", "test": "Gene expression custom microarray, pooled keratinocyte line (Example 3): KLF4", "experimental": "as §1, §2, §3, §4, §5"}}, "data": [{"molecule": "CC(C)[C@]12O[C@H]1[C@@H]1O[C@]13[C@]1(O[C@H]1C[C@H]1C4=C(CC[C@@]13C)C(=O)OC4)[C@@H]2O", "note": "[Triptolide]", "values": [{"measurement": "↑ITGB1 gene expression, fold increase or decrease vs untreated cells", "setting": "ITGB1", "result": "−14.7", "unit": "fold"}, {"measurement": "↓IL1A gene expression, fold increase or decrease vs untreated cells", "setting": "IL1A", "result": "−14", "unit": "fold"}, {"measurement": "↑TLR2 gene expression, fold increase or decrease vs untreated cells", "setting": "TLR2", "result": "−2.9", "unit": "fold"}, {"measurement": "↑COL1A1 gene expression, fold increase or decrease vs untreated cells", "setting": "COL1A1", "result": "−1.3", "unit": "fold"}, {"measurement": "↑KLF4 gene expression, fold increase or decrease vs untreated cells", "setting": "KLF4", "result": 1.5, "unit": "fold"}]}, {"molecule": "CCCCCCCCCCCCCCCC(=O)NCCO", "note": "[N-palmitoylethanolamide]", "values": [{"measurement": "↑ITGB1 gene expression, fold increase or decrease vs untreated cells", "setting": "ITGB1", "result": "−4", "unit": "fold"}, {"measurement": "↓IL1A gene expression, fold increase or decrease vs untreated cells", "setting": "IL1A", "result": "−1.2", "unit": "fold"}, {"measurement": "↑TLR2 gene expression, fold increase or decrease vs untreated cells", "setting": "TLR2", "result": "−1.3", "unit": "fold"}, {"measurement": "↑COL1A1 gene expression, fold increase or decrease vs untreated cells", "setting": "COL1A1", "result": "−2", "unit": "fold"}, {"measurement": "↑KLF4 gene expression, fold increase or decrease vs untreated cells", "setting": "KLF4", "result": 1.7, "unit": "fold"}]}, {"molecule": "C=C(C)[C@@H]1CCC(C)=C[C@H]1c1c(O)cc(CCCCC)cc1O", "note": "[CBD, cannabidiol, reference compound]", "values": [{"measurement": "↑ITGB1 gene expression, fold increase or decrease vs untreated cells", "setting": "ITGB1", "result": 1.8, "unit": "fold"}, {"measurement": "↓IL1A gene expression, fold increase or decrease vs untreated cells", "setting": "IL1A", "result": 2.3, "unit": "fold"}, {"measurement": "↑TLR2 gene expression, fold increase or decrease vs untreated cells", "setting": "TLR2", "result": 2.8, "unit": "fold"}, {"measurement": "↑COL1A1 gene expression, fold increase or decrease vs untreated cells", "setting": "COL1A1", "result": 1.6, "unit": "fold"}, {"measurement": "↑KLF4 gene expression, fold increase or decrease vs untreated cells", "setting": "KLF4", "result": 3.5, "unit": "fold"}]}]}
